From PubChem BioAssay AID1918944 (Molecular Pharmacology Branch, DTP, NCI, 2023)
“And” between values parts separate entries of the source, which are not always exact repeats. Equal values may be shown once. The source made the active and inactive calls. How the source made its calls: active means viability on the fitted dose curve at most 10% of control; inactive means the rest.

Tested on: 786-0 complex spheroid viability
Experiment: Anticancer human tumor 786-0 cell line growth inhibition;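 further: spheroids exposed to agents for seven days before readout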
Settings: for viability, T/C: stronger effect = lower value
Method in brief: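 Complex spheroids of tumor cells with HUVEC and human MSCs, exposed to iadademstat combined with other agents. Each agent tested in half-log steps from near clinical Cmax (else 10 microM top), DMSO ≤0.25%.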

[1] = curve of first compound, second compound 0.1 µM
[2] = curve of first compound, second compound 0.316 µM
[3] = curve of first compound, second compound 1 µM
[4] = curve of first compound, second compound 3.16 µM
[5] = curve of first compound, second compound 10 µM
[6] = second compound 0.1 µM, first compound 0.0316 µM
[7] = second compound 0.1 µM, first compound 0.1 µM
[8] = second compound 0.1 µM, first compound 0.316 µM
[9] = second compound 0.1 µM, first compound 1 µM
[10] = second compound 0.1 µM, first compound 3.16 µM
[11] = second compound 0.1 µM, first compound 10 µM
[12] = second compound 0.316 µM, first compound 0.0316 µM
[13] = second compound 0.316 µM, first compound 0.1 µM
[14] = second compound 0.316 µM, first compound 0.316 µM
[15] = second compound 0.316 µM, first compound 1 µM
[16] = second compound 0.316 µM, first compound 3.16 µM
[17] = second compound 0.316 µM, first compound 10 µM
[18] = second compound 1 µM, first compound 0.0316 µM
[19] = second compound 1 µM, first compound 0.1 µM
[20] = second compound 1 µM, first compound 0.316 µM
[21] = second compound 1 µM, first compound 1 µM
[22] = second compound 1 µM, first compound 3.16 µM
[23] = second compound 1 µM, first compound 10 µM
[24] = second compound 3.16 µM, first compound 0.0316 µM
[25] = second compound 3.16 µM, first compound 0.1 µM
[26] = second compound 3.16 µM, first compound 0.316 µM
[27] = second compound 3.16 µM, first compound 1 µM
[28] = second compound 3.16 µM, first compound 3.16 µM
[29] = second compound 3.16 µM, first compound 10 µM
[30] = second compound 10 µM, first compound 0.0316 µM
[31] = second compound 10 µM, first compound 0.1 µM
[32] = second compound 10 µM, first compound 0.316 µM
[33] = second compound 10 µM, first compound 1 µM
[34] = second compound 10 µM, first compound 3.16 µM
[35] = second compound 10 µM, first compound 10 µM

Nc1ncn(C2CC(O)C(CO)S2)c(=O)n1 (stereo not drawn) + NC1CCC(NC2CC2c2ccccc2)CC1
IC50 [1]: 198 nM | IC50 [2]: 207 nM | IC50 [3]: 201 nM | IC50 [4]: 174 nM | IC50 [5]: 141 nM | viability, T/C (second compound 0.1 µM, first compound 0.000949 µM): 127% | viability, T/C (second compound 0.1 µM, first compound 0.003 µM): 127% | viability, T/C (second compound 0.1 µM, first compound 0.00949 µM): 130% | viability, T/C (second compound 0.1 µM, first compound 0.03 µM): 111% | viability, T/C (second compound 0.1 µM, first compound 0.0949 µM): 78.3% | viability, T/C (second compound 0.1 µM, first compound 0.3 µM): 34.1% | viability, T/C (second compound 0.316 µM, first compound 0.000949 µM): 135% | viability, T/C (second compound 0.316 µM, first compound 0.003 µM): 131% | viability, T/C (second compound 0.316 µM, first compound 0.00949 µM): 130% | viability, T/C (second compound 0.316 µM, first compound 0.03 µM): 120% | viability, T/C (second compound 0.316 µM, first compound 0.0949 µM): 77.1% | viability, T/C (second compound 0.316 µM, first compound 0.3 µM): 37% | viability, T/C (second compound 1 µM, first compound 0.000949 µM): 122% | viability, T/C (second compound 1 µM, first compound 0.003 µM): 123% | viability, T/C (second compound 1 µM, first compound 0.00949 µM): 128% | viability, T/C (second compound 1 µM, first compound 0.03 µM): 115% | viability, T/C (second compound 1 µM, first compound 0.0949 µM): 74.5% | viability, T/C (second compound 1 µM, first compound 0.3 µM): 36.9% | viability, T/C (second compound 3.16 µM, first compound 0.000949 µM): 117% | viability, T/C (second compound 3.16 µM, first compound 0.003 µM): 126% | viability, T/C (second compound 3.16 µM, first compound 0.00949 µM): 126% | viability, T/C (second compound 3.16 µM, first compound 0.03 µM): 108% | viability, T/C (second compound 3.16 µM, first compound 0.0949 µM): 70.2% | viability, T/C (second compound 3.16 µM, first compound 0.3 µM): 32.2% | viability, T/C (second compound 10 µM, first compound 0.000949 µM): 93.6% | viability, T/C (second compound 10 µM, first compound 0.003 µM): 91.8% | viability, T/C (second compound 10 µM, first compound 0.00949 µM): 104% | viability, T/C (second compound 10 µM, first compound 0.03 µM): 98.6% | viability, T/C (second compound 10 µM, first compound 0.0949 µM): 61.9% | viability, T/C (second compound 10 µM, first compound 0.3 µM): 27%

Nc1ccn(C2OC(CO)C(O)C2(F)F)c(=O)n1 (stereo not drawn)
viability, T/C (compound 0.000949 µM): 10.4% and 19.8% | viability, T/C (compound 0.003 µM): 4.3% and 7% | outcome (compound 0.00949 µM): active | viability, T/C (compound 0.00949 µM): 4.25% | viability, T/C (compound 0.03 µM): 4.55% and 6.65% | viability, T/C (compound 0.0949 µM): 4.92% and 6.2% | viability, T/C (compound 0.3 µM): 6.14% and 6.43% | IC50 (curve of compound): < 0.949 nM

CC(C)c1c(-c2ccccc2)nc2c(C#N)c[nH]n2c1=O + NC1CC1c1ccc(-c2cccc(O)c2)cc1
IC50 [1]: > 10000 nM | IC50 [2]: > 10000 nM | IC50 [3]: > 10000 nM | IC50 [4]: > 10000 nM | IC50 [5]: > 10000 nM | viability, T/C [6]: 114% | viability, T/C [7]: 120% | viability, T/C [8]: 124% | viability, T/C [9]: 121% | viability, T/C [10]: 116% | viability, T/C [11]: 119% | viability, T/C [12]: 118% | viability, T/C [13]: 117% | viability, T/C [14]: 115% | viability, T/C [15]: 121% | viability, T/C [16]: 119% | viability, T/C [17]: 115% | viability, T/C [18]: 117% | viability, T/C [19]: 121% | viability, T/C [20]: 123% | viability, T/C [21]: 118% | viability, T/C [22]: 116% | viability, T/C [23]: 113% | viability, T/C [24]: 113% | viability, T/C [25]: 113% | viability, T/C [26]: 121% | viability, T/C [27]: 121% | viability, T/C [28]: 117% | viability, T/C [29]: 116% | viability, T/C [30]: 103% | viability, T/C [31]: 106% | viability, T/C [32]: 110% | viability, T/C [33]: 107% | viability, T/C [34]: 107% | viability, T/C [35]: 113%

CC(C)CC(NC(=O)C(Cc1ccccc1)NC(=O)c1cnccn1)B(O)O (stereo not drawn) + NC1CCC(NC2CC2c2ccccc2)CC1
IC50 [1]: 2.81 nM | IC50 [2]: 2.56 nM | IC50 [3]: 2.56 nM | IC50 [4]: 2.25 nM | IC50 [5]: 1.95 nM | viability, T/C (second compound 0.1 µM, first compound 0.000316 µM): 122% | viability, T/C (second compound 0.1 µM, first compound 0.001 µM): 114% | viability, T/C (second compound 0.1 µM, first compound 0.00316 µM): 42.6% | viability, T/C (second compound 0.1 µM, first compound 0.01 µM): 2.11% | viability, T/C [6]: 0.17% | viability, T/C [7]: 0.14% | viability, T/C (second compound 0.316 µM, first compound 0.000316 µM): 115% | viability, T/C (second compound 0.316 µM, first compound 0.001 µM): 110% | viability, T/C (second compound 0.316 µM, first compound 0.00316 µM): 36.6% | viability, T/C (second compound 0.316 µM, first compound 0.01 µM): 3.06% | viability, T/C [12]: 0.46% | viability, T/C [13]: 0.16% | viability, T/C (second compound 1 µM, first compound 0.000316 µM): 117% | viability, T/C (second compound 1 µM, first compound 0.001 µM): 113% | viability, T/C (second compound 1 µM, first compound 0.00316 µM): 35.9% | viability, T/C (second compound 1 µM, first compound 0.01 µM): 6.05% | viability, T/C [18]: 0.96% | viability, T/C [19]: 0.23% | viability, T/C (second compound 3.16 µM, first compound 0.000316 µM): 106% | viability, T/C (second compound 3.16 µM, first compound 0.001 µM): 102% | viability, T/C (second compound 3.16 µM, first compound 0.00316 µM): 28.2% | viability, T/C (second compound 3.16 µM, first compound 0.01 µM): 5.87% | viability, T/C [24]: 0.76% | viability, T/C [25]: 0.29% | viability, T/C (second compound 10 µM, first compound 0.000316 µM): 92.1% | viability, T/C (second compound 10 µM, first compound 0.001 µM): 86.1% | viability, T/C (second compound 10 µM, first compound 0.00316 µM): 24% | viability, T/C (second compound 10 µM, first compound 0.01 µM): 3.66% | viability, T/C [30]: 1.18% | viability, T/C [31]: 0.23%

O=C(c1cc(Cc2n[nH]c(=O)c3ccccc23)ccc1F)N1CCN(C(=O)C2CC2)CC1 + NC1CC1c1ccc(-c2cccc(O)c2)cc1
IC50 [1]: > 10000 nM | IC50 [2]: > 10000 nM | IC50 [3]: > 10000 nM | IC50 [4]: > 10000 nM | IC50 [5]: > 10000 nM | viability, T/C [6]: 111% | viability, T/C [7]: 119% | viability, T/C [8]: 107% | viability, T/C [9]: 105% | viability, T/C [10]: 97.6% | viability, T/C [11]: 80.8% | viability, T/C [12]: 112% | viability, T/C [13]: 112% | viability, T/C [14]: 112% | viability, T/C [15]: 109% | viability, T/C [16]: 98.8% | viability, T/C [17]: 81.1% | viability, T/C [18]: 111% | viability, T/C [19]: 110% | viability, T/C [20]: 113% | viability, T/C [21]: 108% | viability, T/C [22]: 93.3% | viability, T/C [23]: 78.6% | viability, T/C [24]: 103% | viability, T/C [25]: 105% | viability, T/C [26]: 103% | viability, T/C [27]: 97.5% | viability, T/C [28]: 85.9% | viability, T/C [29]: 68.4% | viability, T/C [30]: 97.3% | viability, T/C [31]: 98.8% | viability, T/C [32]: 89.3% | viability, T/C [33]: 90.7% | viability, T/C [34]: 72.8% | viability, T/C [35]: 52.9%
